Experimental data taken from PMC3724358 (The journal of physical chemistry. B, 2011).
Numbering of substitutions follows the chain as printed. pKd: −log10 of the molar value.

Assays:
[1] = target: T1, Ht cyt c552 (Hydrogenobacter thermophilus cytochrome c552) (Hydrogenobacter thermophilus, UniProt P15452, M77A); test: protein film voltammetry titration, pyrolytic graphite edge electrode; assay type: binding
T1 sequence (P15452 19-98 M77A): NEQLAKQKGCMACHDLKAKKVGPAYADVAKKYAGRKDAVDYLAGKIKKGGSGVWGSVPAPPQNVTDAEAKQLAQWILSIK

[2] = target: T2, Ht cyt c552 (Hydrogenobacter thermophilus cytochrome c552) (Hydrogenobacter thermophilus, UniProt P15452); test: as above; assay type: binding
T2 sequence (P15452 19-98): T1 sequence (P15452 19-98 M77A) with A59M

SMILES: c1c[nH]cn1 [Im, imidazole]
- pKd [1]: 3.12
- pKd [2]: 2.62
